# In article PMC3328449, “Inhibition of Diacylglycerol–Sensitive TRPC Channels by Synthetic and Natural Steroids” (PLoS ONE, 2012):
# Where “and” joins values, the source holds several entries; their conditions need not be identical. Equal values may be shown once.
# Biological target: T1, hTRPC3 (Homo sapiens, UniProt Q13507)
# T1 construct: expressed in transfected cells
# T1 sequence (Q13507 1-848 isoform Q13507-3): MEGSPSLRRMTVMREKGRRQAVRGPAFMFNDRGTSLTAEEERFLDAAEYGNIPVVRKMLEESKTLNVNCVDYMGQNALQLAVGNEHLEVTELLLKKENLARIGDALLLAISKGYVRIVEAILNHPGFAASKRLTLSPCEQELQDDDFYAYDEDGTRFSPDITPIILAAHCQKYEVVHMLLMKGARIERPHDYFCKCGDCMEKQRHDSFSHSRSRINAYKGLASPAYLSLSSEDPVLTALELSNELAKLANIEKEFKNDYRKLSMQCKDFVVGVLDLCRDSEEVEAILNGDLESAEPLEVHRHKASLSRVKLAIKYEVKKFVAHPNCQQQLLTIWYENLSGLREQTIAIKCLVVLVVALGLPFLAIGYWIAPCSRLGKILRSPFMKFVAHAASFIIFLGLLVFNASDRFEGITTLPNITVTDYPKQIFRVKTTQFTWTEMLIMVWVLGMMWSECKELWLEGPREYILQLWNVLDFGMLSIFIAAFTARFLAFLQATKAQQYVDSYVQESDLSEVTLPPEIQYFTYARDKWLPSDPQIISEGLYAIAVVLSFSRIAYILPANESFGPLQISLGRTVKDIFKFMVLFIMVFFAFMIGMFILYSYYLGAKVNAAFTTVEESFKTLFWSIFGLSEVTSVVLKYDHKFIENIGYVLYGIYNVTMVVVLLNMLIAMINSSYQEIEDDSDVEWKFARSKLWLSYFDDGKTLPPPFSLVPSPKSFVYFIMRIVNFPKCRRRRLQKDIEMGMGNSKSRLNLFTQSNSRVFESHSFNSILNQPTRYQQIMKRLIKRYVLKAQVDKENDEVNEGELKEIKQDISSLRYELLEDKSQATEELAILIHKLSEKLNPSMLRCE
# Experiment: OAG-induced Ca2+ entry, fluo-4 fluorometric imaging plate reader, TRPC3 CHO cells
# Format: cell-based
# Conditions: for IC50: TRPC3 CHO cells, fluo-4, area under the curve, 10 min pre-incubation, read-out: IC50, inhibition of OAG-induced Ca2+ entry via TRPC3; for Hill slope n, inhibition of TRPC3-mediated Ca2+ entry: fit to Hill model
# Procedure: hTRPC3 (GenBank accession number NM_003305) was stably expressed in chinese hamster ovary (CHO) cells using a proprietary high expression vector (Steinbeis -Transferzentrum für Angewandte Biologische Chemie, Mannheim, Germany). Cells grown to an almost confluent monolayer on black poly-D-lysine coated 96-well plates (Greiner, Frickenhausen, Germany) were washed with standard extracellular solution (140 mM NaCl, 1 mM MgCl2, 5.4 mM KCl, 2 mM CaCl2, 10 mM HEPES, 10 mM glucose, pH 7.35) and stained (30 min, room temperature) with dye solution (2 μM fluo-4 AM, 0.02% pluronic F127, 0.1% bovine serum albumin in standard extracellular solution). Cells were washed and either incubated with standard extracellular solution only or with different concentrations of test compounds for 10 min. Fluo-4 fluorescence was excited at 488 nm with an argon laser and measured using a fluorometric imaging plate reader (Molecular Devices, Sunnyvale, USA). All fluorometric measurements were performed at room temperature. […] Baseline fluorescence in non-OAG-stimulated cells and OAG-stimulated Ca^2+ influx into control cells not treated with inhibitors were defined as 0% and 100% influx, respectively. For statistical analysis, analysis of variance was performed with Origin 6.0 software (Microcal Software Inc., Northampton, USA). […] Averaged data is expressed as means ± SEM.
smiles,measurement,setting,value
C#C[C@]1(OC(C)=O)CC[C@H]2[C@@H]3CCC4=CC(=NO)CC[C@@H]4[C@H]3CC[C@@]21CC (mixture of isomers) [norgestimate],Effect on TRPC3-mediated Ca2+ entry,"30 µM pre-incubation, OAG-induced",significantly reduced
same,IC50,,3 to 5 µM and 3 µM
same,"Hill slope n, inhibition of TRPC3-mediated Ca2+ entry",,1.67
CC(=O)[C@H]1CC[C@H]2[C@@H]3CCC4=CC(=O)CC[C@]4(C)[C@H]3CC[C@]12C [progesterone],IC50,,12.4 µM
same,"Hill slope n, inhibition of TRPC3-mediated Ca2+ entry",,3.6
